Source: article PMC9823097, “Dysregulation of PRMT5 in chronic lymphocytic leukemia promotes progression with high risk of Richter’s transformation” (Nature Communications, 2023)
Where “and” joins values, the source holds several entries; their conditions need not be identical. Identical values can stand only once.

How the values were obtained:
[1] = tested on: PRMT5 in Mec-1 cell line; test: Cas9-mediated doxycycline-inducible knockout of PRMT5, Mec-1 proliferation; type: cell-based; details: +doxy
Source text: Proteins extracted from whole-cell lysates were resolved by SDS-PAGE and transferred on nitrocellulose membrane as previously described. CpG685 oligonucleotide was obtained from the OSU Cytogenetics Core Lab. Antibodies used for immunoblots included anti-human PRMT5 (Abcam #ab109451), GAPDH (Millipore Sigma #MAB374), SDMA (Cell Signaling Technology #13222), c-Myc (Cell Signaling Technology #5605S), and β-Actin (Cell Signaling Technology #4967S). Cas9-mediated doxycycline-inducible knockout of PRMT5 utilized a targeted sgRNA (guide sequence: […], PAM: GGG).

[2] = tested on: BRD4 occupancy at the PRMT5 locus; test: ChIP-seq of H3K27Ac and BRD4 binding at the PRMT5 locus; type: cell-based; details: vehicle, CpG, or PLX51107 treatment
[3] = tested on: PRMT5 expression in CLL cells; test: PRMT5 mRNA and protein expression in CpG-stimulated CLL cells upon BRD4 inhibition; type: cell-based, human

Structure (SMILES): C[C@H]1c2cccc(O)c2C(O)=C2C(=O)[C@]3(O)C(O)=C(C(N)=O)C(=O)[C@@H](N(C)C)[C@@H]3[C@@H](O)[C@@H]21 [+doxy]
- Rep. 1 Live cells/mL ([1]; 1 days treated): 170000 cells/mL
- Rep. 2 Live cells/mL ([1]; 1 days treated): 158000 cells/mL
- Rep. 1 Live cells/mL ([1]; 2 days treated): 387000 cells/mL
- Rep. 2 Live cells/mL ([1]; 2 days treated): 352000 cells/mL
- Rep. 1 Live cells/mL ([1]; 3 days treated): 686000 cells/mL
- Rep. 2 Live cells/mL ([1]; 3 days treated): 721000 cells/mL
- Rep. 1 Live cells/mL ([1]; 4 days treated): 991000 cells/mL
- Rep. 2 Live cells/mL ([1]; 4 days treated): 944000 cells/mL
- Rep. 1 Live cells/mL ([1]; 5 days treated): 827000 cells/mL
- Rep. 2 Live cells/mL ([1]; 5 days treated): 862000 cells/mL
- Rep. 1 Live cells/mL ([1]; 6 days treated): 1180000 cells/mL
- Rep. 2 Live cells/mL ([1]; 6 days treated): 1280000 cells/mL

Structure (SMILES): Cc1noc(C)c1-c1cnc2c(-c3ccc(C(=O)O)cc3)cn([C@@H](C)c3ccccn3)c2c1 [PLX51107]
- BRD4 occupancy at the PRMT5 locus enhancer [2]: lost
- PRMT5 protein expression ([3]; 72h 10µM PLX51107, CLL cells stimulated with 21.7 µg/mL CpG, n=5 patients): Reduced
- PRMT5 mRNA expression ([3]; 72h 10µM PLX51107, CLL cells stimulated with 21.7 µg/mL CpG, n=8 patients): Reduced
- PRMT5 Relative Expression (2-ΔCt) ([3]; individual samples, Supplemental Figure 7C): 1.507 and 1.2928 and 1.349 and 0.5743 and 1.232 and 0.9553 and 1.659 and 0.935
